Experiment [1] concerns HT-29. The experiment is described as follows: Growth inhibitory concentration against human HT-29 cells. The class given is functional.
For experiment [2], the system named is MOLT-4. The experiment is described as follows: Growth inhibitory concentration against human MOLT-4 cells. The format is functional.
The target in experiment [3] is Thymidylate synthase (Homo sapiens, UniProt P04818).
Description: Inhibitory concentration against human thymidylate synthase
A short description of experiment [4]: Inhibitory concentration against Escherichia coli dihydrofolate reductase.
The target of experiment [5] is Thymidylate synthase (Escherichia coli, UniProt C3SWJ7). Briefly: Inhibitory concentration against Escherichia coli thymidylate synthase.
Chain of Thymidylate synthase (Escherichia coli, UniProt C3SWJ7) (C3SWJ7 whole entry): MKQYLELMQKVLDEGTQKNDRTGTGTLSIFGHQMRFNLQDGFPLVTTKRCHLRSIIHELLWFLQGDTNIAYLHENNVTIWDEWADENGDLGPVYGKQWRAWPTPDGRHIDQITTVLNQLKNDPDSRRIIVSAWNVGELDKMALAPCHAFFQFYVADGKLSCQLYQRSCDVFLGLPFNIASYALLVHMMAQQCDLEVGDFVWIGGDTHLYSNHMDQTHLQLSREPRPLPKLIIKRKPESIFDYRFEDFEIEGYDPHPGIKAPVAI
Experiment [6] concerns MDA-MB-231. Briefly: Growth inhibitory concentration against human MDA-MB-231 cells. The format is functional.
The target of experiment [7] is T1, Dihydrofolate reductase (Homo sapiens, UniProt P00374).
T1 sequence (P00374 whole entry): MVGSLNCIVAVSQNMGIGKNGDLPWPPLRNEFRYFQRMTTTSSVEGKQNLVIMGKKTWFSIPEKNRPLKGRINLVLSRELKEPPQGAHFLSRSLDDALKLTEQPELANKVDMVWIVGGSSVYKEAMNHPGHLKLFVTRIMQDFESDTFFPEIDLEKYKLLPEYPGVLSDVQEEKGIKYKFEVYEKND
The experiment is described as follows: Inhibitory concentration against human dihydrofolate reductase.

Some results are limits rather than exact numbers.

As usually defined, the GI50 is the concentration that inhibits growth by half. A high value points to less potent growth inhibition. As a reminder, the IC50 is the concentration that gives 50% inhibition. Read a low IC50 as greater potency in that assay.

Chain of Thymidylate synthase (Homo sapiens, UniProt P04818) (P04818 whole entry): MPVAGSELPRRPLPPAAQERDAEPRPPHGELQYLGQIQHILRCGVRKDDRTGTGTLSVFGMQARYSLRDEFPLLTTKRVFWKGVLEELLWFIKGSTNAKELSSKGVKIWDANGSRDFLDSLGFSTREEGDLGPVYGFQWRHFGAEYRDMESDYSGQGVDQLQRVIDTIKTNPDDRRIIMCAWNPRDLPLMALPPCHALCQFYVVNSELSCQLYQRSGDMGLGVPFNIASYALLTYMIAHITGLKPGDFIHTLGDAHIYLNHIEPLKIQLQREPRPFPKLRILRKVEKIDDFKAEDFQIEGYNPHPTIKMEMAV

For the compound `Cc1[nH]c2nc(N)nc(O)c2c1Sc1ccc(Br)c([N+](=O)[O-])c1`, the 50% growth inhibitory concentration (GI50) in experiment [1] is 6.18 µM; in experiment [2], 4.23 µM; in experiment [6], 3.28 µM; in experiment [6] (Homo sapiens, MDA-MB-231), 6.55 µM. The IC50 in experiment [3] is 0.21 µM; in experiment [4], greater than 25 µM; in experiment [5] it was 11 µM.

Turning to `Cc1[nH]c2nc(N)nc(O)c2c1Sc1ccc(OC(F)(F)F)cc1`, the IC50 in experiment [3] was 2.3 µM; in experiment [4] it was greater than 28 µM; in experiment [5], greater than 23 µM.

`Cc1[nH]c2nc(N)nc(O)c2c1Sc1ccc(Br)cc1`: the IC50 is 0.46 µM in experiment [3], greater than 28 µM in experiment [7] and 2.8 µM in experiment [4].

Turning to `Cc1[nH]c2nc(N)nc(O)c2c1Sc1ccc(C#N)cc1`, the IC50 was 0.28 µM in experiment [3], greater than 34 µM in experiment [7] and greater than 34 µM in experiment [4].

Turning to `Cc1[nH]c2nc(N)nc(O)c2c1Sc1cc(C(F)(F)F)cc(C(F)(F)F)c1`, the IC50 in experiment [3] was greater than 21 µM; in experiment [7], greater than 25 µM; in experiment [4], greater than 25 µM.

For the compound `Cc1[nH]c2nc(N)nc(O)c2c1Sc1cc(Cl)cc(Cl)c1`, the values for the IC50 in experiment [3], in experiment [4] and in experiment [5] were 2.4 µM, greater than 29 µM and greater than 24 µM, respectively.

Regarding `Cc1[nH]c2nc(N)nc(O)c2c1Sc1cc(F)cc(F)c1`, the IC50 in experiment [3] was 2.7 µM; in experiment [7], greater than 32 µM; in experiment [4], greater than 32 µM.

Turning to `Cc1[nH]c2nc(N)nc(O)c2c1Sc1ccc(C(F)(F)F)cc1`, the IC50 in experiment [3] is 0.8 µM; in experiment [7], greater than 29 µM; in experiment [4], greater than 29 µM.

With `Cc1[nH]c2nc(N)nc(O)c2c1Sc1cccc(Br)c1`, the values for the IC50 in experiment [3], in experiment [4] and in experiment [5] were 1.2 µM, greater than 28 µM and greater than 24 µM, respectively.

Consider `Cc1[nH]c2nc(N)nc(O)c2c1Sc1ccc(F)c(Cl)c1`, for which the IC50 in experiment [3] is 0.83 µM; in experiment [7], greater than 31 µM; in experiment [4], greater than 31 µM.

Take `Cc1[nH]c2nc(N)nc(O)c2c1Sc1ccc(F)cc1`: the figures for the IC50 in experiment [3], in experiment [7] and in experiment [4] were 1.4 µM, greater than 32 µM and greater than 33 µM, respectively.

As for `Cc1[nH]c2nc(N)nc(O)c2c1Sc1cccc(Cl)c1`, the IC50 in experiment [3] was 1.4 µM; in experiment [7], greater than 32 µM; in experiment [4] it was greater than 33 µM.

For `Cc1[nH]c2nc(N)nc(O)c2c1Sc1cc([N+](=O)[O-])cc([N+](=O)[O-])c1`, the IC50 in experiment [3] is 23 µM; in experiment [4], greater than 27 µM; in experiment [5], greater than 23 µM.

In the case of `Cc1[nH]c2nc(N)nc(O)c2c1Sc1ccc(Cl)c([N+](=O)[O-])c1`, the IC50 in experiment [3] was 0.46 µM; in experiment [4], greater than 28 µM; in experiment [5], 23 µM.

As for `Cc1[nH]c2nc(N)nc(O)c2c1Sc1ccc(F)c(F)c1`, the IC50 in experiment [3] is 0.9 µM; in experiment [7], greater than 32 µM; in experiment [4], greater than 32 µM.

With `Cc1[nH]c2nc(N)nc(O)c2c1Sc1ccc(Br)c(Cl)c1`, the IC50 was 0.22 µM in experiment [3], greater than 26 µM in experiment [7] and greater than 26 µM in experiment [4].

Turning to `Cc1[nH]c2nc(N)nc(O)c2c1Sc1cccc(F)c1`, the IC50 in experiment [3] is 2.8 µM; in experiment [4], greater than 33 µM; in experiment [5] it was greater than 28 µM.

These data come from ChEMBL document CHEMBL1144372, “Novel 2-amino-4-oxo-5-arylthio-substituted-pyrrolo[2,3-d]pyrimidines as nonclassical antifolate inhibitors of thymidylate synthase” (Bioorg Med Chem Lett, 2005).
